Laboratory results from paper PMC11310889, “Ribosomal translation of fluorinated non-canonical amino acids for de novo biologically active fluorinated macrocyclic peptides” (Chemical Science, 2024).
*1 amine or outer side, *2 acyl side, *3 side chain or, on linkers, in order; H or OH if unused. Where a SMILES comes first, the peptide text is derived from it. Bridges are numbered along the chain shown (N, C = ends). [ ]: non-standard residue; d: D form. X1 = O=C(C[C@H](N[*:1])c1ccc(F)cc1)[*:2]; dPhe(4-F) = N[C@H](Cc1ccc(F)cc1)C(=O)O

Legend:
mouse red blood cells = assay type: cell-based
Procedure: a Biacore T200 instrument (GE Healthcare) at 25 °C. In this study, the running buffer was HBS-EP+ buffer (10 mM HEPES-KOH (pH 7.4), 150 mM NaCl, 50 μM EDTA, 0.05% Tween 20) containing 0.1% DMSO. The Series S Sensor Chip CM5 was used to fix BAM complex on the surface of Biacore CM5 chip with a density of 9500 RU. The binding mode was multi-cycle kinetics (one sample concentration one cycle). Finally, the binding sensorgrams was analyzed by Biacore evaluation software, and the standard 1:1 model was used for fitting.
(§1) Preliminary evaluation of the antibacterial activity of macrocyclic peptides against E. coli […]
Remove the previously preserved E. coli W3110 cells from the -80 °C refrigerator, scrape a little, inoculate it into 1 mL LB liquid medium, and culture overnight in 37°C shaker. The strain was inoculated into fresh LB liquid medium according to the inoculation ratio of 1:100 and incubated at 37℃ until the OD600 reached about 0.47~0.53. […]
Finally, the plate was scanned and counted. […]
the samples were centrifuged at 1000 rpm for 10 min，and take pictures of the pellet after centrifugation. […] The absorbance of the supernatant at the wavelength of 545 nm was measured by microplate reader, and the percentage of hemolysis of each […]

BAM complex = test system: T1, BAM complex; test: SPR binding kinetics to BAM complex; parameters: species or system E. coli; conditions: Biacore T200, 25 °C, multi-cycle kinetics, 1:1 model; for ka for BAM complex: CM5 chip; for Kd: HBS-EP+ buffer pH 7.4 with 0.1% DMSO, BAM complex on CM5 chip (9500 RU)
T1 construct: made in house; host or cells: E. coli BL21(DE3), strain obtained from Xinmiao Fu, Fujian Normal University
Procedure: Expression and purification of the BAM complex
The E. coli BL21(DE3) cells containing all five Bam proteins (BamA, B, C, D, and E) was obtained from Xinmiao Fu of Fujian Normal University and used for expression and purification.
The BL21(DE3) cells plated onto LB-ampicillin agar plates and incubated overnight at 37 °C. A 20 mL culture incubated overnight at 37°C was prepared from a single colony in LB medium supplemented with 100 mg/L of ampicillin. The strain was inoculated into fresh LB liquid medium according to the inoculation ratio of 1:100 and incubated at 37 ℃ for about 4 hours until the OD600 reached about 1.0. The temperature of the incubator was set to 20 ℃ and then cultured for 1 hour, and 200 uM IPTG was added to induce overnight. First of all, the induced cells were collected by freezing centrifuge 3000 rpm for 30 min, and the collected cells were resuspended with Buffer 1 (20 mM Tris-HCl, pH 8.0, 150 mM NaCl), and then crushed low temperature and pressure with a high pressure crusher. The broken cells were centrifuged 1 hour at 4 °C for18000 rpm by high speed centrifuge. After centrifugation at 4 °C 18000 rpm for 1 hour, and the supernatant was discarded and the cell membrane was collected. The collected cell membranes were resuscitated with Buffer 2 (20 mM Tris-HCl, pH 8.0, 300 mM NaCl, 1% DDM) and then dissolved at 4 °C for 2 hours. After dissolving the membrane, the supernatant was collected by high speed centrifuge at 18,000 rpm. The 20 mM imidazole was added to the supernatant and incubated with a 2 mL Ni-NTA sefinoseTM resin column for 1 hour. After incubation, 10 column volumes were washed with Buffer 3 (20 mM Tris-HCl, pH 8.0, 300 mM NaCl, 0.025%DDM) containing 30 mM and 50 mM imidazole respectively. Then, the protein was eluted with Buffer 3 containing 200 mM imidazole, and the eluted protein was collected. Finally, using the 20-fold molar excess of EZ-LinkTM Sulfo-NHS-LC-LC-Biotin for BAM complex, and incubate reaction on ice for 2 hours. After the protein labeling is completed, dialysis is used to purify the labeled protein to remove the remaining unreacted and hydrolyzed biotin reagents. […]
The mobile phase was 0.1% TFA aqueous solution / acetonitrile containing 0.1%
TFA. The purified macrocyclic peptides and fluorinated macrocyclic peptides were confirmed by electrospray ionization mass spectrometry (ESI-MS).
Binding kinetics analysis by SPR
The binding kinetics between the selected peptides and EphA2 were tested by SPR using a Biacore T200 instrument (GE Healthcare) at 25 °C. In this study, the running buffer was HBS-EP+ buffer (10 mM HEPES-KOH (pH 7.4), 150 mM NaCl, 50 μM EDTA, 0.05% Tween 20) containing 0.1% DMSO. Biotin capture kit (GE Healthcare) was used to fix human EphA2 on the surface of Biacore CAP chip with a density of 1050 RU. Five different concentrations of peptides were injected at the flow rate of 30 μL/min, and their kinetic constants were determined. The binding kinetic was quantified by single cycle kinetic method. Finally, the binding sensorgrams was analyzed by Biacore evaluation software, and the standard 1:1 model was used for fitting.
The binding kinetics between the selected peptides and BAM complex were tested by SPR using […]
a Biacore T200 instrument (GE Healthcare) at 25 °C. In this study, the running buffer was HBS-EP+ […]
0.1% DMSO. The Series S Sensor Chip CM5 was used to fix BAM complex on the surface of Biacore CM5 chip with a density of 9500 RU. The binding mode was multi-cycle kinetics (one sample concentration one cycle). Finally, the binding sensorgrams was analyzed by Biacore evaluation software, and the standard 1:1 model was used for fitting.
as §1
Remove the previously preserved E. coli W3110 cells from the -80 °C refrigerator, scrape a little, inoculate it into 1 mL LB liquid medium, and culture overnight in 37°C shaker. The strain was […]

T1 sequence (P0A903 25-344): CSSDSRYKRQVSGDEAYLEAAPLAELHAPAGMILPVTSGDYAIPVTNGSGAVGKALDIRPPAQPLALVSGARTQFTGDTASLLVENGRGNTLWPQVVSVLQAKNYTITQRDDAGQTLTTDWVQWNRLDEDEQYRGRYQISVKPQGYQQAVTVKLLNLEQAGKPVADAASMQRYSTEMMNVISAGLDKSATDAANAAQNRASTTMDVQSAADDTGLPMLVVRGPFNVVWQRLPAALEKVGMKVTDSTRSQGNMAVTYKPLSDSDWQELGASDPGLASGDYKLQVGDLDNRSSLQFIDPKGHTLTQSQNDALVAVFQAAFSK
T1 sequence (P0AC02 20-245, further chain): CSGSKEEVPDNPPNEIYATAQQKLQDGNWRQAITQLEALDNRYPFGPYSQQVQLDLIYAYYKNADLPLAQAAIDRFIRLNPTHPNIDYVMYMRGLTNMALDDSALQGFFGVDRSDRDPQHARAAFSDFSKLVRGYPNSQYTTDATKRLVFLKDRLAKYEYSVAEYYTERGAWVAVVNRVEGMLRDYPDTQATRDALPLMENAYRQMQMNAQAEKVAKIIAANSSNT
T1 sequence (P0A937 20-113, further chain): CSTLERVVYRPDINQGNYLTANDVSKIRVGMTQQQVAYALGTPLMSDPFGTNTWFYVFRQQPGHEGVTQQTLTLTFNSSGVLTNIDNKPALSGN
T1 sequence (P77774 20-392, further chain): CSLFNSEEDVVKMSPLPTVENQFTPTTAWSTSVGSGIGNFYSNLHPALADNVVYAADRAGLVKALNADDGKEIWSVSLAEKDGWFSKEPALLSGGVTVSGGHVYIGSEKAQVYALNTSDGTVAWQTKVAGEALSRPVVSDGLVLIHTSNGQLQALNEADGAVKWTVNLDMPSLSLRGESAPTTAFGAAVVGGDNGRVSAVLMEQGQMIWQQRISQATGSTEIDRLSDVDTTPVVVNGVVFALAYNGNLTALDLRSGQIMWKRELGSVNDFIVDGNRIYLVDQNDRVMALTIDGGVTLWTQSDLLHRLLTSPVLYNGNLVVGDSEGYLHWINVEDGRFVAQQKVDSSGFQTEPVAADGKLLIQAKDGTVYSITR

CC[C@H](C)[C@@H]1NC(=O)[C@@H](Cc2ccc(F)cc2)NC(=O)CSC[C@@H](C(=O)NCC(N)=O)NC(=O)[C@H]([C@@H](C)O)NC(=O)[C@H](Cc2c[nH]cn2)NC(=O)[C@H](CC(C)C)NC(=O)[C@H](Cc2ccc(O)cc2)NC(=O)[C@H](CC(N)=O)NC(=O)[C@@H](Cc2ccc(F)cc2)NC(=O)[C@H]([C@@H](C)O)NC(=O)[C@H](CC(C)C)NC(=O)[C@H](CO)NC(=O)[C@H](CCCCN)NC(=O)[C@H](Cc2c[nH]cn2)NC(=O)[C@H](Cc2c[nH]c3ccccc23)NC1=O [BAM-f2] ({CH2CO}-[dPhe(4-F)]IWHKSLT[dPhe(4-F)]NYLHTCG-NH2; thioether N-15)
hemolytic toxicity towards mouse red blood cells (mouse red blood cells): low to negligible hemolytic toxicity | ka for BAM complex (BAM complex): 0.90 ×10 4 M-1s-1 | Kd (BAM complex): 755 nM

CC[C@H](C)[C@@H]1NC(=O)[C@H](Cc2ccccc2)NC(=O)[C@H](Cc2c[nH]cn2)NC(=O)[C@H](CCCCN)NC(=O)[C@@H](Cc2ccc(F)cc2)NC(=O)CSC[C@@H](C(=O)NCC(N)=O)NC(=O)[C@H]([C@@H](C)CC)NC(=O)[C@@H]2CCCN2C(=O)[C@H](CO)NC(=O)[C@H](CCCNC(=N)N)NC(=O)[C@H](Cc2ccc(O)cc2)NC(=O)C[C@@H](c2ccc(F)cc2)NC(=O)[C@H](Cc2ccc(O)cc2)NC1=O [BAM-β3] ({CH2CO}-[dPhe(4-F)]KHFIY[X1]YRSPICG-NH2; thioether N-13)
hemolytic toxicity towards mouse red blood cells (mouse red blood cells): low to negligible hemolytic toxicity | ka for BAM complex (BAM complex): 2.54 ×10 4 M-1s-1 | Kd (BAM complex): 453 nM
